Drawing on ChEMBL document CHEMBL3046826, “Triosephosphate isomerases in Italian ryegrass ( Lolium multiflorum ): characterization and susceptibility to herbicides” (J Agric Food Chem, 2009), this text covers Activity and inhibition for 5 compounds.

The target in assay [1] is Triosephosphate isomerase, chloroplastic (Secale cereale) (UniProt P46225). The experiment in a line: Inhibition of desalted triosephosphate isomerase in Lolium multiflorum (Italian rye grass) shoot assessed as transformation of GAP to DHAP applied at concentration of 20.0 mg/flat measured per mg protein after 48 hr by coupled enzyme assay (reference value: 9.80 +/-0.43 nmol/sec).
Sequence of Triosephosphate isomerase, chloroplastic (Secale cereale) (P46225 whole entry): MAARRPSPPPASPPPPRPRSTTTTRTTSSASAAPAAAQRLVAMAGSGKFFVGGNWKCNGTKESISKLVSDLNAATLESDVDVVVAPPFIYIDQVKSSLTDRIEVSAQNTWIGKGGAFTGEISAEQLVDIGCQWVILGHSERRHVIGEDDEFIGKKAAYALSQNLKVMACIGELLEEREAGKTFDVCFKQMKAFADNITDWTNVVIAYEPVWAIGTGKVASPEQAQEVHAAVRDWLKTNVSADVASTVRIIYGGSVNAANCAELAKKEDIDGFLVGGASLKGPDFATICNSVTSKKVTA

For assay [2] the target is unchanged. The assay is described as follows: Inhibition of desalted triosephosphate isomerase in Lolium multiflorum (Italian rye grass) shoot assessed as transformation of GAP to DHAP applied at concentration of 4.43 mg/flat measured per mg protein after 48 hr by coupled enzyme assay (reference value: 9.80 +/-0.43 nmol/sec).
Assay [3] shares this target. The experiment in a line: Inhibition of desalted triosephosphate isomerase in Lolium multiflorum (Italian ryegrass) shoot assessed as transformation of GAP to DHAP applied at concentration of 14.4 mg/flat measured per mg protein after 48 hr by coupled enzyme assay (reference value: 9.80 +/-0.43 nmol/sec).
Assay [4] shares this target. The experiment in a line: Inhibition of desalted triosephosphate isomerase in Lolium multiflorum (Italian ryegrass) shoot assessed as decrease in transformation of GAP to DHAP applied at concentration of 14.4 mg/flat measured after 48 hr by coupled enzyme assay.
The target is the same in assay [5]. The assay is described as follows: Inhibition of desalted triosephosphate isomerase in Lolium multiflorum (Italian ryegrass) shoot assessed as transformation of GAP to DHAP applied at concentration of 1.80 mg/flat measured per mg protein after 48 hr by coupled enzyme assay (reference value: 9.80 +/-0.43 nmol/sec).

Each structure is given as a SMILES string.

Regarding `CCc1cccc(C)c1N(C(=O)CCl)C(C)COC` (configuration not stated), the Activity in assay [1] is 9.57 nmol/s.

Consider `CCOC(=O)c1nc(C(Cl)(Cl)Cl)n(-c2ccc(Cl)cc2Cl)n1`, for which, in assay [2], the Activity was determined as 10.2 nmol/s.

The term inhibition denotes the relative decrease from the control value, in per cent. As for `CCNc1nc(Cl)nc(NC(C)C)n1`, in assay [3], the Activity is 7.2 nmol/s. In addition, the inhibition in assay [4] is 26.5%.

Take `O=[N+]([O-])c1ccc(Oc2ccc(C(F)(F)F)cc2[N+](=O)[O-])cc1`: the Activity in assay [3] was determined as 6.28 nmol/s. For the same compound, the inhibition in assay [4] was found to be 35.9%.

As to `CCOC(=O)C(C)Oc1ccc(Oc2nc3ccc(Cl)cc3o2)cc1` (configuration not stated), in assay [5], the Activity came out at 9.3 nmol/s.
